Test results reported in patent publication US20240336647A1, “NUCLEOSIDE ANALOGS AND THERAPEUTIC USE THEREOF” (priority 2023, published 2024).
Entries after “also recorded” stand apart in the source; their conditions may differ.

How the values were obtained:
[1] = target: T1, SARS-COV-2 RdRp (Severe acute respiratory syndrome coronavirus 2, UniProt P0DTD1); test: Primer extension to determine if m1A is incorporated onto RNA by RdRp via m1ATP (PAGE); type: biochemical; conditions: CTP, 37° C.
Description: Determine if the m1A or m3C modification could be incorporated onto RNA or DNA by a polymerase via m1ATP or m3CTP, respectively: The SARS-COV-2 RdRp with m1ATP is used as the example. Sources of materials used in the experiment can be found in reference [Apostle et al Preprints doi:10.20944/preprints202311.1268.v1]. RNA duplex [F038]-[F039] (SEQ ID NOs: 12 and 13, FIG. 2) was prepared by annealing the two RNAs using the following procedure. The solution of RNAs [F038] (SEQ ID NO: 12, 20 μM, all concentrations are final) and [F039] (SEQ ID NO: 13, 20 μM) in Tris-HCl (10 mM), and KCI (100 mM) was heated at 94° C. for 5 min. The solution was then cooled to RT slowly giving the [F038]-[F039] (SEQ ID NOs: 12 and 13) duplex. […] To another tube containing only the RNA duplex in 10 μL nuclease free water ([…], corresponding to the experiment of lane 1 in FIG. 2) were also added the EDTA and loading dye solutions (same quantities as above, final volume 30 μL). […]
The results of the primer extension reaction is shown in FIG. 2, gel image for determining if m1A could be incorporated onto RNA by SARS-COV-2 RdRp via m1ATP. […] The reaction products were analyzed with PAGE. […]

[2] = target: T1, SARS-COV-2 RdRp; type: biochemical

Structure (SMILES) | inhibition of RdRp by m1ATP ([1]; m1ATP only for 15 min, then ATP, GTP and UTP) | incorporation of m1A into RNA by RdRp via m1ATP ([1]; m1ATP, GTP, UTP 0.5 mM each, no ATP, 2 h) | effect of the modification in template RNA on RdRp catalytic activity [2]
C[n+]1cnc2c(ncn2[C@@H]2O[C@H](COP(=O)(O)OP(=O)(O)OP(=O)(O)O)C(O)C2O)c1N (stereo partly drawn) [m1ATP] | does not inhibit RdRp | m1A can be incorporated into RNA by SARS-COV-2 RdRp via m1ATP; also recorded: m1A could indeed be efficiently incorporated into RNA by SARS-COV-2 RdRp; also recorded: m1A can be incorporated onto RNA | 
C[n+]1c(N)ccn([C@@H]2O[C@H](CO)C(O)C2O)c1=O (stereo partly drawn) [m3C, N3-methylcytidine] |  |  | has minimal impact; also recorded: can be tolerated by the RdRp; also recorded: has little effect on the RdRp
